Where a name gives a salt, the structure may show the parent alone. Read-outs that look alike come from different tables or passages of the source.
Legend:
EGFR Del19/T790M/C797S = EGFR Del19/T790M/C797S (Homo sapiens, UniProt P00533, C797S/DEL746-750/T790M); experiment: Biochemical EGFR kinase inhibition assay (Lance Ultra TR-FRET), triple mutant del19/T790M/C797S
Procedure, shortened: (§1)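 Step 1: compound in kinase buffer, 0.003–10 μM. Step 2: kinase reaction 1 h at room temperature. Step 4: TR-FRET read at 615/665 nm; IC50 calculated.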

EGFR Del19/C797S = EGFR Del19/C797S (Homo sapiens, UniProt P00533, C797S/DEL746-750); experiment: Biochemical EGFR kinase inhibition assay (Lance Ultra TR-FRET), double mutant del19/C797S
Procedure, shortened: as §1

EGFR wildtype (WT) = EGFR wildtype (WT) (Homo sapiens, UniProt P00533); experiment: Biochemical EGFR kinase inhibition assay (Lance Ultra TR-FRET), wildtype
Sequence of EGFR wildtype (WT) (P00533 25-1210): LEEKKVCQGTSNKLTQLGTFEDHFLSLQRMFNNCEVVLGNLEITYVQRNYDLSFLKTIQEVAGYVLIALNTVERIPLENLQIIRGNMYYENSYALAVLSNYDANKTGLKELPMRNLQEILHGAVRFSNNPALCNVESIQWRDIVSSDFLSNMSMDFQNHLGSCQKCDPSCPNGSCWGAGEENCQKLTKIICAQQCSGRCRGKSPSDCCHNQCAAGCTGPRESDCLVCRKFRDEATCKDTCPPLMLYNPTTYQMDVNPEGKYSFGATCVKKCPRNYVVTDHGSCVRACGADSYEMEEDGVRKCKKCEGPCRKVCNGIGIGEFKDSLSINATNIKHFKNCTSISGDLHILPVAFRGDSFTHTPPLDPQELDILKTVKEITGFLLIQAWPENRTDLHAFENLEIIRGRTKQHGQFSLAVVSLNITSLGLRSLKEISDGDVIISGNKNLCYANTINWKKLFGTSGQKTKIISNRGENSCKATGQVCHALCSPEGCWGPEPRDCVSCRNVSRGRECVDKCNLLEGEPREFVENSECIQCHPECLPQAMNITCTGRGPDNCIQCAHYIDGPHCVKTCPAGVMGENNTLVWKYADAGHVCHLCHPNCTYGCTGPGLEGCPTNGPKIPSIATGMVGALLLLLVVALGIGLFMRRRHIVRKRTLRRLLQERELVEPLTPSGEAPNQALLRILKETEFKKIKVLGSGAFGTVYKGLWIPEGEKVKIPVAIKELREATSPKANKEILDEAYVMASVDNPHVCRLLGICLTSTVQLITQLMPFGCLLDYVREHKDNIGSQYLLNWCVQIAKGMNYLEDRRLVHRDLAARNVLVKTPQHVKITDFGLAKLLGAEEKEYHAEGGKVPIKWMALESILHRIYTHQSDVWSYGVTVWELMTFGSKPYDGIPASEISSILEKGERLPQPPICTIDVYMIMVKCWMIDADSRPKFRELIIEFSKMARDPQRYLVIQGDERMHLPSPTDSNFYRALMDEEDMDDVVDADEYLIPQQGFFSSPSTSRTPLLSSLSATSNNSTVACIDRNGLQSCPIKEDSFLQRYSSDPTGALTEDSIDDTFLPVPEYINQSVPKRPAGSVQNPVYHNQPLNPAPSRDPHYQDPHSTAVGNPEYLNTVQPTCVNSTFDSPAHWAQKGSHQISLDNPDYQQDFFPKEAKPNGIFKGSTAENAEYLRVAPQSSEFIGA
Procedure, shortened: as §1

EGFR L858R/C797S = EGFR L858R/C797S (Homo sapiens, UniProt P00533, C797S/L858R); experiment: Biochemical EGFR kinase inhibition assay (Lance Ultra TR-FRET), double mutant L858R/C797S
Sequence of EGFR L858R/C797S (P00533 25-1210 C797S/L858R): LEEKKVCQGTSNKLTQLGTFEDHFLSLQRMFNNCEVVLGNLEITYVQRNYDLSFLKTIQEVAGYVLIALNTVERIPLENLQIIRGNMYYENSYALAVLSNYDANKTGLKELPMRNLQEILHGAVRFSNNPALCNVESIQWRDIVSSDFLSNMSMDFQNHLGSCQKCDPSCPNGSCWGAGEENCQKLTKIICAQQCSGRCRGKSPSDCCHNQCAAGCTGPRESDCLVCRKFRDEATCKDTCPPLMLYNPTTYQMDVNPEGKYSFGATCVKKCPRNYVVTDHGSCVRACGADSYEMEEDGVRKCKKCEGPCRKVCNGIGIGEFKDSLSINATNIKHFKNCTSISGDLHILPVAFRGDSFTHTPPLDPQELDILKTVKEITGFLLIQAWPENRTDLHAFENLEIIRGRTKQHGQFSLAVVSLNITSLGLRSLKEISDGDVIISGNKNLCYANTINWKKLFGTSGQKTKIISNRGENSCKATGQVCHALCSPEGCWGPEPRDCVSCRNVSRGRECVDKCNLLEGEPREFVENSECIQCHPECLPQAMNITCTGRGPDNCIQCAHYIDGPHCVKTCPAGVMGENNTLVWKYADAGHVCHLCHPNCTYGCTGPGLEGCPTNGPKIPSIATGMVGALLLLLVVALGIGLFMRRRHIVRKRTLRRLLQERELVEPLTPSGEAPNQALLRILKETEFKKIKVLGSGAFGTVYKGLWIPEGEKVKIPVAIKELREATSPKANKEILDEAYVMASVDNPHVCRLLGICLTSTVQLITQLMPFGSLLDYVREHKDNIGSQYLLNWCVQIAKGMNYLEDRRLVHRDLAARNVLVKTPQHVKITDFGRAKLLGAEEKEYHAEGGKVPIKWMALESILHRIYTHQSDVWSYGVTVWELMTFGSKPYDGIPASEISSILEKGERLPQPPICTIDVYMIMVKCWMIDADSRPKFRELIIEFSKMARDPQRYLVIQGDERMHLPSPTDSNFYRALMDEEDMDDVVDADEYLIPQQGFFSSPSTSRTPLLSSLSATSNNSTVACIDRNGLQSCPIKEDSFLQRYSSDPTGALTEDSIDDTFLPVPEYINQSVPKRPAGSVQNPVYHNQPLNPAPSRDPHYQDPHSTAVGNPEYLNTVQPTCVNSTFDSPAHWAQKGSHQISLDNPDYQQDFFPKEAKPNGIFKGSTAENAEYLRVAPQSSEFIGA
Procedure, shortened: as §1

EGFR L858R/T790M/C797S = EGFR L858R/T790M/C797S (Homo sapiens, UniProt P00533, C797S/L858R/T790M); experiment: Biochemical EGFR kinase inhibition assay (Lance Ultra TR-FRET), triple mutant L858R/T790M/C797S
Sequence of EGFR L858R/T790M/C797S (P00533 25-1210 T790M/C797S/L858R): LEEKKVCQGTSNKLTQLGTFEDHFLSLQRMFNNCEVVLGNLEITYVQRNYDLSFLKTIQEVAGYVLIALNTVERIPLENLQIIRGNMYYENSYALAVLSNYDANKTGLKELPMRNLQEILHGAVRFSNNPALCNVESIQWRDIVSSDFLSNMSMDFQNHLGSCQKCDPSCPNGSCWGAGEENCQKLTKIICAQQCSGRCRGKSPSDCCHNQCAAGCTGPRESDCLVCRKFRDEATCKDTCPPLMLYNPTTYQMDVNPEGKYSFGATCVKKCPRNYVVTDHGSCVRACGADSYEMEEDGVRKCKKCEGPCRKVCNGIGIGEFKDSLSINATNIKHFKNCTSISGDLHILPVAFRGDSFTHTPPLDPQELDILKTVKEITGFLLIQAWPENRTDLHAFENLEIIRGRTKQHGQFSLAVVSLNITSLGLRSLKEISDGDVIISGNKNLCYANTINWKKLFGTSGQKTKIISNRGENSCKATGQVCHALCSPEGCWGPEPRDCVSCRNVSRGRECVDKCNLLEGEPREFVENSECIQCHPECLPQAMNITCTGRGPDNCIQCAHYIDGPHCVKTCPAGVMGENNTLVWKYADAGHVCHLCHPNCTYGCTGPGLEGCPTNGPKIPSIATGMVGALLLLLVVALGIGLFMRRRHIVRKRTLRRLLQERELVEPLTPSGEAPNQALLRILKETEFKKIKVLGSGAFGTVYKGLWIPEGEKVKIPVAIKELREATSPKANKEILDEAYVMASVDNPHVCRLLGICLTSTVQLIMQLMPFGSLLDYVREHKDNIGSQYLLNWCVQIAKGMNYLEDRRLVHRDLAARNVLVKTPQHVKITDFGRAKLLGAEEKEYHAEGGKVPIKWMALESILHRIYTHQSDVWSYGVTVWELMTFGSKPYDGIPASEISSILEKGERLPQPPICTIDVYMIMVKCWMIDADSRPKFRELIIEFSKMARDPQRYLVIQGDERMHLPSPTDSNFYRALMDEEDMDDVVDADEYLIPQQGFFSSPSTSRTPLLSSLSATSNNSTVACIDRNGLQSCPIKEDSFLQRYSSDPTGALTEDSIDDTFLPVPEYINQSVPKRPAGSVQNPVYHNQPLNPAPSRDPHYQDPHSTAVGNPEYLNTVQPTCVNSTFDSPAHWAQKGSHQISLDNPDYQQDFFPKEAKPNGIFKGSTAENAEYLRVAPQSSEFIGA
Procedure, shortened: as §1

[1] = ATP at Km, read-out: IC50 Del19/T790M/C797S (nM), Km ATP
[2] = IC50 Del19/T790M/C797S (nM), 100 μM ATP
[3] = ATP at Km, read-out: IC50 Del19/C797S (nM), Km ATP
[4] = IC50 Del19/C797S (nM), 100 μM ATP
[5] = ATP at Km, read-out: IC50 WT (nM), Km ATP
[6] = ATP at Km, read-out: IC50 L858R/C797S (nM), Km ATP
[7] = IC50 L858R/C797S (nM), 100 μM ATP
[8] = ATP at Km, read-out: IC50 L858R/T790M/C797S (nM), Km ATP
[9] = IC50 L858R/T790M/C797S (nM), 100 μM ATP
[10] = Km ATP, read-out: IC50 Del19/T790M/C797S (nM), Km ATP
[11] = Km ATP, read-out: IC50 L858R/T790M/C797S (nM), Km ATP
[12] = Km ATP, read-out: IC50 Del19/T790M/C797S (nM) Km ATP
[13] = Km ATP, read-out: IC50 Del19/C797S (nM) Km ATP
[14] = Km ATP, read-out: IC50 WT (nM) Km ATP
[15] = Km ATP, read-out: IC50 L858R/C797S (nM) Km ATP
[16] = Km ATP, read-out: IC50 L858R/T790M/C797S (nM) Km ATP
[17] = Km ATP, read-out: IC50 Del19/C797S (nM), Km ATP
[18] = Km ATP, read-out: IC50 WT (nM), Km ATP
[19] = Km ATP, read-out: IC50 L858R/C797S (nM), Km ATP

Sequence of EGFR Del19/T790M/C797S (P00533 with tags, fused parts or gaps DEL746-750/T790M/C797S): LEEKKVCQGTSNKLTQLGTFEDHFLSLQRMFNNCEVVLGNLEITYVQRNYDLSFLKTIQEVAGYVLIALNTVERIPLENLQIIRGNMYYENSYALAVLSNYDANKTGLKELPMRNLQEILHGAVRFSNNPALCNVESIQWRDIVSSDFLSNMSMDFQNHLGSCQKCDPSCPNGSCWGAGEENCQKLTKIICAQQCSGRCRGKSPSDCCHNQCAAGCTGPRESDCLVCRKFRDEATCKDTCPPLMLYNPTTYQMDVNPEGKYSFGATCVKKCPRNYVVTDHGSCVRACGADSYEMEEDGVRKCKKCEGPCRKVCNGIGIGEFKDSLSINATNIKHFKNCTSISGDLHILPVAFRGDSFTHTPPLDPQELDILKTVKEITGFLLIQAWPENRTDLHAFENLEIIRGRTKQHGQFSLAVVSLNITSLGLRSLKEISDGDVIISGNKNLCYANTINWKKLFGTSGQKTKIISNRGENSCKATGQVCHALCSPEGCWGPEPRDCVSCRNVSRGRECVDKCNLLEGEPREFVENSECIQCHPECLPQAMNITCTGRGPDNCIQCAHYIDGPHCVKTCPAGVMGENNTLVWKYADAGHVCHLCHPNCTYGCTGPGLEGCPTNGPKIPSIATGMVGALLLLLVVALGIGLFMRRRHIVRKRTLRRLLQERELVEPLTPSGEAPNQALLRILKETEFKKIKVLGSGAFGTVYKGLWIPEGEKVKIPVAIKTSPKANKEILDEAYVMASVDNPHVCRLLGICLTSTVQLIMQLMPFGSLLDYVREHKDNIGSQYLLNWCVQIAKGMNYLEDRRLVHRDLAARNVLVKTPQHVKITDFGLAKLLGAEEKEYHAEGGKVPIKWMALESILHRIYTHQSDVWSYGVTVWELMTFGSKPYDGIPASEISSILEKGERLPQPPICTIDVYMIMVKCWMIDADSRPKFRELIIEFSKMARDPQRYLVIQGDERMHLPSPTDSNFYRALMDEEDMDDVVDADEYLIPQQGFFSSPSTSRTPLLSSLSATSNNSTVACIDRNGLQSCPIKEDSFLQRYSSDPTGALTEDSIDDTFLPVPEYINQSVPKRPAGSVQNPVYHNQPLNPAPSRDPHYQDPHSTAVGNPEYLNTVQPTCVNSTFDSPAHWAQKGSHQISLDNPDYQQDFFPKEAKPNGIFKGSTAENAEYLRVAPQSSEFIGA

| Compound | IC50 (EGFR Del19/T790M/C797S; [1]) [nM] | IC50 (EGFR Del19/T790M/C797S; [2]) [nM] | IC50 (EGFR Del19/C797S; [3]) [nM] | IC50 (EGFR Del19/C797S; [4]) [nM] | IC50 (EGFR wildtype (WT); [5]) [nM] | IC50 (EGFR wildtype (WT); IC50 WT (nM), 100 μM ATP) [nM] | IC50 (EGFR L858R/C797S; [6]) [nM] | IC50 (EGFR L858R/C797S; [7]) [nM] | IC50 (EGFR L858R/T790M/C797S; [8]) [nM] | IC50 (EGFR L858R/T790M/C797S; [9]) [nM] | IC50 (EGFR Del19/T790M/C797S; [10]) [nM] | IC50 (EGFR L858R/T790M/C797S; [11]) [nM] | IC50 (EGFR Del19/T790M/C797S; [12]) [nM] | IC50 (EGFR Del19/C797S; [13]) [nM] | IC50 (EGFR wildtype (WT); [14]) [nM] | IC50 (EGFR L858R/C797S; [15]) [nM] | IC50 (EGFR L858R/T790M/C797S; [16]) [nM] | IC50 (EGFR Del19/C797S; [17]) [nM] | IC50 (EGFR wildtype (WT); [18]) [nM] | IC50 (EGFR L858R/C797S; [19]) [nM] |
| --- | --- | --- | --- | --- | --- | --- | --- | --- | --- | --- | --- | --- | --- | --- | --- | --- | --- | --- | --- | --- |
| CNCCC1CCN(c2cc(Nc3ccnc(-c4cnn(S(=O)(=O)C5CC5)c4)n3)ncc2C#Cc2cnn(C)c2)CC1 [Example 153, 2-(1-(Cyclopropylsulfonyl)-1H-pyrazol-4-yl)-N-(5-((1-methyl-1H-pyrazol-4-yl)ethynyl)-4-(4-(2-(methylamino)ethyl)piperidin-1-yl)pyridin-2-yl)pyrimidin-4-amine] | 0.1 | 0.1 | 0.3 | 0.3 | 1.9 | 822 | 1.8 | 5.1 | 0.04 | 0.1 |  |  |  |  |  |  |  |  |  |  |
| CN1CCC2(CCN(c3cc(Nc4ccnc(-c5cnn(S(=O)(=O)C6CC6)c5)n4)ncc3C#Cc3cnn(C)c3)CC2)C1 [Example 297, 2-(1-(Cyclopropylsulfonyl)-1H-pyrazol-4-yl)-N-(5-((1-methyl-1H-pyrazol-4-yl)ethynyl)-4-(2-methyl-2,8-diazaspiro[4.5]decan-8-yl)pyridin-2-yl)pyrimidin-4-amine formate] | 0.1 | 0.1 | 1.2 | 3.2 | 4.1 | 4180 | 1 | 38.1 | 0.1 | 0.2 |  |  |  |  |  |  |  |  |  |  |
| CC1(O)CCN(c2cc(Nc3ccnc(-c4cnn(S(=O)(=O)C5CC5)c4)n3)ncc2C#Cc2ccc(C(=O)N3CCC(O)CC3)cc2)CC1 [Example 442, (4-((6-((2-(1-(Cyclopropylsulfonyl)-1H-pyrazol-4-yl)pyrimidin-4-yl)amino)-4-(4-hydroxy-4-methylpiperidin-1-yl)pyridin-3-yl)ethynyl)phenyl)(4-hydroxypiperidin-1-yl)methanone] |  | 0.9 |  | 1.3 |  | 9930 |  | 20.3 |  | 0.3 | 0.7 | 0.1 |  |  |  |  |  |  |  |  |
| O=S(=O)(C1CC1)n1cc(-c2nccc(Nc3cc(N4CCC(CO)CC4)c(C#Cc4cnn(C5CC5(F)F)c4)cn3)n2)cn1 (centres unmarked) [Example 83, (1-(2-((2-(1-(Cyclopropylsulfonyl)-1H-pyrazol-4-yl)pyrimidin-4-yl)amino)-5-((1-(2,2-difluorocyclopropyl)-1H-pyrazol-4-yl)ethynyl)pyridin-4-yl)piperidin-4-yl)methanol] |  | 1.3 |  | 4 |  | > 10000 |  | 24.4 |  | 2.5 |  |  |  |  |  |  |  |  |  |  |
| CC(=O)N1CCC(n2cc(C#Cc3cnc(Nc4ccnc(-c5cnn(S(=O)(=O)C6CC6)c5)n4)cc3N3CCC(F)CC3)cn2)CC1 [Example 112, 1-(4-(4-((6-((2-(1-(Cyclopropylsulfonyl)-1H-pyrazol-4-yl)pyrimidin-4-yl)amino)-4-(4-fluoropiperidin-1-yl)pyridin-3-yl)ethynyl)-1H-pyrazol-1-yl)piperidin-1-yl)ethan-1-one] |  | 1.5 |  | 5.2 |  | > 10000 |  | 17.1 |  | 2.8 |  |  | 1.5 | 4.6 | 21.3 | 2.8 | 1.1 |  |  |  |
| CC1(O)CCN(c2cc(Nc3ccnc(-c4cnn(S(=O)(=O)C5CC5)c4)n3)ncc2C#CC2CC3CCC2O3)CC1 (centres unmarked) [Example 424, 1-(5-((7-Oxabicyclo[2.2.1]heptan-2-yl)ethynyl)-2-((2-(1-(cyclopropylsulfonyl)-1H-pyrazol-4-yl)pyrimidin-4-yl)amino)pyridin-4-yl)-4-methylpiperidin-4-o 1] |  | 0.2 |  | 2.4 |  | 5450 |  | 47.7 |  | 0.3 | 0.3 | 0.2 |  |  |  |  |  | 2 | 8.8 | 1.9 |
| Cn1cc(C#Cc2cnc(Nc3ccnc(-c4cnn(S(=O)(=O)C5CC5)c4)n3)cc2N2CCC3(CCNCC3)C2)cn1 [Example 154, 2-(1-(Cyclopropylsulfonyl)-1H-pyrazol-4-yl)-N-(5-((1-methyl-1H-pyrazol-4-yl)ethynyl)-4-(2,8-diazaspiro[4.5]decan-2-yl)pyridin-2-yl)pyrimidin-4-amine] | 0.4 | 1.4 | 6 | 12 | 44.4 | 6720 | 6.4 | 145 | 0.3 | 4.3 |  |  |  |  |  |  |  |  |  |  |
| CC1(CO)CCN(c2cc(Nc3ccnc(-c4cnn(S(=O)(=O)C5CC5)c4)n3)ncc2C#CCC2(O)COC2)CC1 [Example 286, 3-(3-(6-((2-(1-(Cyclopropylsulfonyl)-1H-pyrazol-4-yl)pyrimidin-4-yl)amino)-4-(4-(hydroxymethyl)-4-methylpiperidin-1-yl)pyridin-3-yl)prop-2-yn-1-yl)oxetan-3-ol] |  | 0.1 |  | 2.2 |  | 4300 |  | 13.5 |  | 0.4 |  |  |  |  |  |  |  |  |  |  |
| CC1(CO)CCN(c2cc(Nc3ccnc(-c4cnn(S(=O)(=O)C5CC5)c4)n3)ncc2C#Cc2cnn(CC3CC3)c2)CC1 [Example 48, (1-(5-((1-(Cyclopropylmethyl)-1H-pyrazol-4-yl)ethynyl)-2-((2-(1-(cyclopropylsulfonyl)-1H-pyrazol-4-yl)pyrimidin-4-yl)amino)pyridin-4-yl)-4-methylpiperidin-4-yl)methanol] |  | 5.3 |  | 2.2 |  | 2910 |  | 15.9 |  | 9.1 |  |  | 4 | 4.3 | 38.2 | 7.2 | 2.3 |  |  |  |
| CC1(C#Cc2cnc(Nc3ccnc(-c4cnn(S(=O)(=O)C5CC5)c4)n3)cc2NC[C@H]2CC[C@H](O)CC2)CC1 [Example 403, (1r,4r)-4-(((2-((2-(1-(Cyclopropylsulfonyl)-1H-pyrazol-4-yl)pyrimidin-4-yl)amino)-5-((1-methylcyclopropyl)ethynyl)pyridin-4-yl)amino)methyl)cyclohexan-1-ol] |  | 16.2 |  | 140 |  | > 10000 |  | 1920 |  | 50.3 |  |  |  |  |  |  |  |  |  |  |
| CC1(O)CCN(c2cc(Nc3ccnc(-c4cnn(S(=O)(=O)C5CC5)c4)n3)ncc2C#CC2CCS(=O)(=O)C2)CC1 (centres unmarked) [Example 429, 3-((6-((2-(1-(Cyclopropylsulfonyl)-1H-pyrazol-4-yl)pyrimidin-4-yl)amino)-4-(4-hydroxy-4-methylpiperidin-1-yl)pyridin-3-yl)ethynyl)tetrahydrothiophene 1,1-dioxide] |  | 0.5 |  | 3.4 |  | 6020 |  | 39.7 |  | 0.3 | 0.2 | 0.2 |  |  |  |  |  | 4.9 | 38.9 | 4.8 |
